Laboratory results taken from patent US20260070945A1, “MACROCYCLIC IMMUNOMODULATORS” (Bristol-Myers Squibb Company, priority 2022, published 2026).
*1 amine or outer side, *2 acyl side, *3 side chain or, on linkers, in order; H or OH if unused. Where a SMILES comes first, the peptide text is derived from it. Bridges are numbered along the chain shown (N, C = ends). [ ]: non-standard residue; d: D form. The star is where a group is joined. ξ: configuration not given here. Phe(4-CF3) = N[C@@H](Cc1ccc(C(F)(F)F)cc1)C(=O)O; Phe(4-COOH) = N[C@@H](Cc1ccc(C(=O)O)cc1)C(=O)O; Bip = N[C@@H](Cc1ccc(-c2ccccc2)cc1)C(=O)O; Phe(3-Me) = Cc1cccc(C[C@H](N)C(=O)O)c1; γGlu = O=C(O)[C@H](CCC(=O)[*:2])N[*:1]; NH(CH2)12COOH = O=C(O)CCCCCCCCCCCCN*; Val(3-OH) = CC(C)(O)[C@H](N)C(=O)O; 4Pal = N[C@@H](Cc1ccncc1)C(=O)O; Cha = N[C@@H](CC1CCCCC1)C(=O)O; Cit = NC(=O)NCCC[C@H](N)C(=O)O; Ile(3ξ) = CCC(C)[C@H](N)C(=O)O; NMeN = CN[C@@H](CC(N)=O)C(=O)O; Thr(3ξ) = CC(O)[C@H](N)C(=O)O; Carboxymethyl = O=C(O)C*; NMeA = CN[C@@H](C)C(=O)O; Orn = NCCC[C@H](N)C(=O)O; Aun = NCCCCCCCCCCC(=O)O; Dab = NCC[C@H](N)C(=O)O; Dap = NC[C@H](N)C(=O)O; AEEA = NCCOCCOCC(=O)O

Molecular target: T1, PD-1/PD-L1 interaction (PE-labeled human PD-L1-Ig binding to Jurkat cell line over-expressing human PD-1) (Homo sapiens, UniProt Q15116)
T1 construct: expressed in transfected cells; host or cells: Jurkat
Assay: Jurkat-PD-1 Cell Binding High-Content Screening Assay (CBA)
Settings: Jurkat-hPD-1 cells, PE-labeled PD-L1-Ig 20 nM final; read-out: Jurkat HPD1 PDL1 IC50
Summary of the method: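 Jurkat-hPD-1 cells (8×10^3/well) in DMEM with 10% fetal calf serum were preincubated with compound for 2 h at 37 °C. PE-labeled PD-L1-Ig was then added at 20 nM final for 1 h. Cells were fixed in paraformaldehyde with Hoechst 33342, washed and imaged by high-content imaging.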

T1 sequence (Q15116 25-288): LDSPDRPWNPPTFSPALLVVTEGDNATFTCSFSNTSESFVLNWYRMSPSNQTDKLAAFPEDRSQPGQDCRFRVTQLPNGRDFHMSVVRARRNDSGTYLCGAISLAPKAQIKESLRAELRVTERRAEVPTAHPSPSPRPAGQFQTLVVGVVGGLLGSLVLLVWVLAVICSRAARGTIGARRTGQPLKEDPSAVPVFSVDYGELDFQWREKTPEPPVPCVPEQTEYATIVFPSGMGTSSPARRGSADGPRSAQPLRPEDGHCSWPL

IC50 [nM]	SMILES
24.7	CCC(C)[C@@H]1NC(=O)[C@H](Cc2ccc(-c3ccccc3)cc2)NC(=O)[C@H](C(C)C)NC(=O)[C@H](Cc2cccc(C)c2)NC(=O)[C@H](CC(=O)O)NC(=O)[C@H](Cc2ccc(OCC(=O)O)cc2)NC(=O)[C@H](CCCNC(=N)N)NC(=O)CSC[C@@H](C(=O)N[C@H](CC(N)=O)C(=O)NCCCCCCCCCCC(=O)O)NC(=O)[C@H](C(C)O)NC(=O)[C@H](C(C)C)NC(=O)[C@H](CC2CCCCC2)NC(=O)[C@H](CCN)NC(=O)[C@@H](CC(C)C)NC(=O)[C@H](C)N(C)C1=O (stereo partly drawn) [Example 2298] ({CH2CO}-RY(Carboxymethyl)D[Phe(3-Me)]V[Bip][Ile(3ξ)][NMeA][dL][Dab][Cha]V[Thr(3ξ)]C[dN][Aun]-OH; thioether N-14)
28.2	Cc1cccc(C[C@@H]2NC(=O)[C@H](CC(=O)O)NC(=O)[C@H](Cc3ccc(OCC(=O)O)cc3)NC(=O)[C@H](C(C)O)NC(=O)CSC[C@@H](C(=O)N(C)[C@@H](CC(N)=O)C(=O)NCCCCCCCCCCC(=O)O)NC(=O)[C@H](CO)NC(=O)[C@H](C(C)C)NC(=O)[C@H](CC3CCCCC3)NC(=O)[C@H](CCN)NC(=O)[C@@H](CC(C)C)NC(=O)[C@H](C)N(C)C(=O)[C@H](C(C)C)NC(=O)[C@H](Cc3ccc(-c4ccccc4)cc3)NC(=O)[C@H](C(C)C)NC2=O)c1 (stereo partly drawn) [Example 2302] ({CH2CO}-[Thr(3ξ)]Y(Carboxymethyl)D[Phe(3-Me)]V[Bip]V[NMeA][dL][Dab][Cha]VSC[NMeN][Aun]-OH; thioether N-14)
15.3	Cc1cccc(C[C@@H]2NC(=O)[C@H](CC(=O)O)NC(=O)[C@H](Cc3ccc(OCC(=O)O)cc3)NC(=O)[C@H](Cc3ccc(OCC(=O)O)cc3)NC(=O)CSC[C@@H](C(=O)N[C@@H](CO)C(=O)NCCCCCCCCCCC(=O)O)NC(=O)[C@H](C(C)O)NC(=O)[C@H](C(C)O)NC(=O)[C@H](CC3CCCCC3)NC(=O)[C@H](CCN)NC(=O)[C@@H](CC(C)C)NC(=O)[C@H](C)N(C)C(=O)[C@H](CCCNC(=N)N)NC(=O)[C@H](Cc3ccc(-c4ccccc4)cc3)NC(=O)[C@H](C(C)C)NC2=O)c1 (stereo partly drawn) [Example 2383] ({CH2CO}-Y(Carboxymethyl)Y(Carboxymethyl)D[Phe(3-Me)]V[Bip]R[NMeA][dL][Dab][Cha][Thr(3ξ)][Thr(3ξ)]CS[Aun]-OH; thioether N-14)
343	Cc1cccc(C[C@@H]2NC(=O)[C@H](CC(=O)O)NC(=O)[C@H](Cc3ccc(C(=O)O)cc3)NC(=O)[C@H](Cc3ccc(OCC(=O)O)cc3)NC(=O)CSC[C@@H](C(=O)NCCCCCCCCCCC(=O)O)NC(=O)[C@H](C(C)O)NC(=O)[C@H](C(C)C)NC(=O)[C@H](CC3CCCCC3)NC(=O)[C@H](CCN)NC(=O)[C@@H](CC(C)C)NC(=O)[C@H](C)N(C)C(=O)[C@H](Cc3ccc(C(=O)O)cc3)NC(=O)[C@H](Cc3ccc(-c4ccccc4)cc3)NC(=O)[C@H](CC(C)C)NC2=O)c1 (stereo partly drawn) [Example 2332] ({CH2CO}-Y(Carboxymethyl)[Phe(4-COOH)]D[Phe(3-Me)]L[Bip][Phe(4-COOH)][NMeA][dL][Dab][Cha]V[Thr(3ξ)]C[Aun]-OH; thioether N-14)

Further lines, the compound ahead of its results:

SMILES	IC50 [nM]
CCC(C)[C@@H]1NC(=O)[C@H](Cc2ccc(-c3ccccc3)cc2)NC(=O)[C@H](CC(C)C)NC(=O)[C@H](Cc2c[nH]c3ccccc23)NC(=O)[C@H](CC(=O)O)NC(=O)[C@H](Cc2ccc(C(=O)O)cc2)NC(=O)[C@H](Cc2ccc(OCC(=O)O)cc2)NC(=O)CSC[C@@H](C(=O)N[C@@H](CCN)C(=O)NCCOCCOCC(=O)NCCCCCCCCCCC(=O)O)NC(=O)[C@H](CO)NC(=O)[C@H](C(C)(C)O)NC(=O)[C@H](CC2CCCCC2)NC(=O)[C@H](CCN)NC(=O)[C@@H](CC(C)C)NC(=O)[C@H](C)N(C)C1=O (stereo partly drawn) [Example 1410] ({CH2CO}-Y(Carboxymethyl)[Phe(4-COOH)]DWL[Bip][Ile(3ξ)][NMeA][dL][Dab][Cha][Val(3-OH)]SC[Dab][AEEA][Aun]-OH; thioether N-14)	16.2
Cc1cccc(C[C@@H]2NC(=O)[C@H](CC(=O)O)NC(=O)[C@H](Cc3ccc(C(=O)O)cc3)NC(=O)[C@H](Cc3ccc(OCC(=O)O)cc3)NC(=O)CSC[C@@H](C(=O)NCC(=O)N[C@@H](CC(=O)O)C(=O)NCCOCCOCC(=O)N[C@@H](CCC(=O)NCCOCCOCC(=O)NCCCCCCCCCCC(=O)O)C(=O)O)NC(=O)[C@H](CO)NC(=O)[C@H](C(C)C)NC(=O)[C@H](CC(C)C)NC(=O)[C@H](CC(N)=O)NC(=O)[C@@H](CC(C)C)NC(=O)[C@H](C)N(C)C(=O)[C@H](C(C)C)NC(=O)[C@H](Cc3ccc(-c4ccccc4)cc3)NC(=O)[C@H](CC(C)C)NC2=O)c1 [Example 1019] ({CH2CO}-Y(Carboxymethyl)[Phe(4-COOH)]D[Phe(3-Me)]L[Bip]V[NMeA][dL]NLVSCGD[AEEA][γGlu][AEEA][Aun]-OH; thioether N-14)	58.5
CC[C@H](C)[C@@H]1NC(=O)[C@H](Cc2ccc(-c3ccccc3)cc2)NC(=O)[C@H](CC(C)C)NC(=O)[C@H](Cc2c[nH]c3ccccc23)NC(=O)[C@H](CC(=O)O)NC(=O)[C@H](Cc2ccc(C(=O)O)cc2)NC(=O)[C@H](Cc2ccc(OCC(=O)O)cc2)NC(=O)CSC[C@@H](C(=O)N[C@@H](Cc2c[nH]cn2)C(=O)NCCCCCCCCCCC(=O)O)NC(=O)[C@H](CO)NC(=O)[C@H](C(C)C)NC(=O)[C@H](CC2CCCCC2)NC(=O)[C@H](CCN)NC(=O)[C@@H](CC(C)C)NC(=O)[C@H](C)N(C)C1=O [Example 1075] ({CH2CO}-Y(Carboxymethyl)[Phe(4-COOH)]DWL[Bip]I[NMeA][dL][Dab][Cha]VSCH[Aun]-OH; thioether N-14)	20.2
Cc1cccc(C[C@@H]2NC(=O)[C@H](CC(=O)O)NC(=O)[C@H](Cc3ccc(OCC(=O)O)cc3)NC(=O)[C@H]([C@@H](C)O)NC(=O)CSC[C@@H](C(=O)N[C@@H](CCCN)C(=O)NCCOCCOCC(=O)NCCCCCCCCCCC(=O)O)NC(=O)[C@H](CCC(=O)O)NC(=O)[C@H](C(C)C)NC(=O)[C@H](CC3CCCCC3)NC(=O)[C@H](CCN)NC(=O)[C@@H](CC(C)C)NC(=O)[C@H](C)N(C)C(=O)[C@H](Cc3ccc(OCC(=O)O)cc3)NC(=O)[C@H](Cc3ccc(-c4ccccc4)cc3)NC(=O)[C@H](Cc3ccc(OCC(=O)O)cc3)NC2=O)c1 [Example 1373] ({CH2CO}-TY(Carboxymethyl)D[Phe(3-Me)]Y(Carboxymethyl)[Bip]Y(Carboxymethyl)[NMeA][dL][Dab][Cha]VEC[Orn][AEEA][Aun]-OH; thioether N-14)	31.7
Cc1cccc(C[C@@H]2NC(=O)[C@H](CC(=O)O)NC(=O)[C@H](Cc3ccc(OCC(=O)O)cc3)NC(=O)[C@H]([C@@H](C)O)NC(=O)CSC[C@@H](C(=O)N[C@H](CC(N)=O)C(=O)NCCOCCOCC(=O)NCCCCCCCCCCC(=O)O)NC(=O)[C@H](CCC(=O)O)NC(=O)[C@H](C(C)(C)O)NC(=O)[C@H](CC3CCCCC3)NC(=O)[C@H](CCN)NC(=O)[C@@H](CC(C)C)NC(=O)[C@H](C)N(C)C(=O)[C@H](Cc3ccc(OCC(=O)O)cc3)NC(=O)[C@H](Cc3ccc(-c4ccccc4)cc3)NC(=O)[C@H](Cc3ccc(OCC(=O)O)cc3)NC2=O)c1 [Example 1416] ({CH2CO}-TY(Carboxymethyl)D[Phe(3-Me)]Y(Carboxymethyl)[Bip]Y(Carboxymethyl)[NMeA][dL][Dab][Cha][Val(3-OH)]EC[dN][AEEA][Aun]-OH; thioether N-14)	311
CC(C)C[C@@H]1NC(=O)[C@H](Cc2c[nH]c3ccccc23)NC(=O)[C@H](CC(=O)O)NC(=O)[C@H](Cc2ccncc2)NC(=O)[C@H](Cc2ccc(OCC(=O)O)cc2)NC(=O)CSC[C@@H](C(=O)NCCOCCOCC(=O)N[C@@H](CN)C(=O)NCCCCCCCCCCC(=O)O)NC(=O)[C@H](CCCNC(N)=O)NC(=O)[C@H](C(C)C)NC(=O)[C@H](CC2CCCCC2)NC(=O)[C@H](CCN)NC(=O)[C@@H](CC(C)C)NC(=O)[C@H](C)N(C)C(=O)[C@H](C(C)C)NC(=O)[C@H](Cc2ccc(-c3ccccc3)cc2)NC1=O [Example 2164] ({CH2CO}-Y(Carboxymethyl)[4Pal]DWL[Bip]V[NMeA][dL][Dab][Cha]V[Cit]C[AEEA][Dap][Aun]-OH; thioether N-14)	11.9

Same assay, conditions: PE-labeled PD-L1-Ig 20 nM final, Jurkat-hPD-1 cells; read-out: Jurkat HPD1 PDL1 IC50

IC50 [nM]	SMILES
12.4	Cc1cccc(C[C@@H]2NC(=O)[C@H](CC(=O)O)NC(=O)[C@H](Cc3ccc(C(=O)O)cc3)NC(=O)[C@H](C(C)O)NC(=O)CSC[C@@H](C(=O)N[C@@H](CCN)C(=O)NCCOCCOCC(=O)NCCOCCOCC(=O)NCCCCCCCCCCC(=O)O)NC(=O)[C@H](CCC(=O)O)NC(=O)[C@H](C(C)C)NC(=O)[C@H](CC3CCCCC3)NC(=O)[C@H](CCN)NC(=O)[C@@H](CC(C)C)NC(=O)[C@H](C)N(C)C(=O)[C@H](Cc3ccc(C(=O)O)cc3)NC(=O)[C@H](Cc3ccc(-c4ccccc4)cc3)NC(=O)[C@H](Cc3ccc(C(=O)O)cc3)NC2=O)c1 (stereo partly drawn) [Example 2538] ({CH2CO}-[Thr(3ξ)][Phe(4-COOH)]D[Phe(3-Me)][Phe(4-COOH)][Bip][Phe(4-COOH)][NMeA][dL][Dab][Cha]VEC[Dab][AEEA][AEEA][Aun]-OH; thioether N-14)
22.4	CC(=O)NCCCC[C@@H]1NC(=O)[C@H](C(C)(C)O)NC(=O)[C@H](CC2CCCCC2)NC(=O)[C@H](CCN)NC(=O)[C@@H](CC(C)C)NC(=O)[C@H](C)N(C)C(=O)[C@H](CCC(N)=O)NC(=O)[C@H](Cc2ccc(-c3ccccc3)cc2)NC(=O)[C@H](Cc2ccc(C(F)(F)F)cc2)NC(=O)[C@H](Cc2cccc(C)c2)NC(=O)[C@H](CC(=O)O)NC(=O)[C@H](Cc2ccc(OCC(=O)O)cc2)NC(=O)[C@H](Cc2ccc(OCC(=O)O)cc2)NC(=O)CSC[C@@H](C(=O)N[C@@H](CCN)C(=O)NCCCCCCCCCCCCC(=O)O)NC1=O [Example 2621] ({CH2CO}-Y(Carboxymethyl)Y(Carboxymethyl)D[Phe(3-Me)][Phe(4-CF3)][Bip]Q[NMeA][dL][Dab][Cha][Val(3-OH)]K(Ac)C[Dab]-{NH(CH2)12COOH}; thioether N-14)
